Laboratory results: patent publication US4077954A, “N-(p-methylphenethyl)-4a-aryl-trans-decahydroisoquinolines” (priority 1976, dated 1978)
Structures can show the parent of a compound that is named as a salt. Where two headings read alike, the source gives them in different places.

Columns and labels:
[1] = test system: mice (phenylquinone-induced writhing); test: phenylquinone writhing test (analgesic ED50), oral, mice; type: in vivo, female white mice; settings: Mus musculus, read-out: ED50 analgesia
Protocol: A standard procedure for detecting and comparing the analgesic activity of compounds in this series for which there is good correlation with human efficacy is the standard phenylquinone writhing test modified from Siegmund, et. at., Proc. Soc. Exp. Biol. Med. 95, 729 (1957). A test compound suspended in 1% methylcellulose was given orally to fasted (17-21 hours) female white mice, 5-20 animals per double blind test. Aqueous (0.01% phenyl-p-benzoquinone) phenylquinone was injected intraperitoneally at 24 minutes later using 0.20 ml per mouse. […] The effective analgesic dose for 50% of the mice (ED 50) was calculated by the moving average method of Thompson, W. R., Bact. Rev. 11, 115-145 (1947).

[2] = Straub tail test (Straub tail ED50), intraperitoneal, mice; design: species or system CF1S female mice; settings: mouse, in vivo; for ED50 at 25 min: ip, mice, intraperitoneal, within 25 minutes after dosing, read-out: ED50^ST (Straub tail ED50)
Protocol: Narcotic analgesics produce in mice an erection and arching of the tail (90° or more) which is referable to spinal cord stimulation. This straub tail reaction is not produced by other analgesics, including the narcotic antagonists.
The method used was modified from Shemano, I., and Wendel, H., Tox. Appl. Pharm. 6, 334-9 (1964). CF1 S female mice (18-21 g), 10-20 mice per dose were injected intraperitoneally with log scaled doses of analgesic in 1% aqueous methylcellulose. A positive Straub tail response was recorded if a tail was erected 90° or more for 5 seconds at any time within 25 minutes after dosing. A quantal Straub tail ED50 was calculated by the moving average method. (Thompson, W. R., Bact. Rev. 11, 115-145 (1947).

in vivo = settings: mouse
mice [3] = settings: cited from earlier work
mice [4] = settings: cited from earlier work; remark: listed apart in the source
[5] = literature statement; cited from earlier work
[6] = Goodman & Gilman 1965; cited from earlier work
[7] = oral, Belgian Patent 802,557 compound

With `Cc1ccc(CCN2CC[C@]3(c4cccc(O)c4)CCCC[C@H]3C2)cc1` (relative stereo) [N-(p-methylphenethyl)-4a-(m-hydroxyphenyl)-trans-decahydroisoquinoline] the ED50 [1] was 2 mg/kg, the ED50 at 25 min [2] was 93 mg/kg and the selectivity ratio ([2]; ratio of Straub tail ED50 to analgesic ED50, read-out: ED50^ST /ED50^analgesia) was 46.
`COc1cccc([C@@]23CCCC[C@H]2CN(CCc2ccc(C)cc2)CC3)c1` (relative stereo) [N-(p-methylphenethyl)-4a-(m-methoxyphenyl)-trans-decahydroisoquinoline] showed an ED50 [1] of 5.8 mg/kg and an ED50 at 25 min [2] of 93 mg/kg.
For `Oc1cccc([C@@]23CCCC[C@H]2CN(CCc2ccccc2)CC3)c1` (relative stereo) [N-phenethyl-4a-(m-hydroxyphenyl)-trans-decahydroisoquinoline], the selectivity ratio (in vivo; po) is given as ~1, the ED50^ST (mice [3]; [7]) is given as 10 mg/kg and the ED50^analgesia (mice [4]; [7]) is given as 6.6 mg/kg.
For `Cc1ccc(CCN2CC[C@@]3(c4cccc(O)c4)CC(C)CC[C@@H]3C2)cc1` (stereo partly drawn) [N-(p-methylphenethyl)-4a-(m-hydroxyphenyl)-6-methyl-trans-decahydroisoquinoline], the ED50 [1] was 2 mg/kg and the ED50 at 25 min [2] was 135 mg/kg.
In the case of `CN1CCC2(c3ccccc3)CCCCC2C1` (stereo not shown) [N-methyl-4a-phenyl-decahydroisoquinoline], the “analgesic activity” value [5] is listed as “low analgesic activity”.
For `COc1cccc([C@@]23CCN(CCc4ccc(C)cc4)C[C@H]2CCC(C)C3)c1` (stereo partly drawn) [N-p-methylphenethyl-4a-(m-methoxyphenyl)-6-methyl-trans-decahydroisoquinoline], the ED50 [1] was 8.7 mg/kg and the ED50 at 25 min [2] was > 135 mg/kg.
In the case of `CC1C2Cc3ccc(O)cc3C1(C)CCN2CCc1ccccc1` (stereo not shown) [Phenzaocine hydrobromide], the selectivity ratio (in vivo) is listed as ~2.5, the “Straub tail ED50” value (mice [3]; mice, Shemano and Wendel 1964) is listed as 0.5 mg/kg and the “analgesic ED50” value (mice [4]; mice, Shemano and Wendel 1964) is listed as 0.2 mg/kg.
In the case of `CN1CC[C@]23c4c5ccc(O)c4O[C@H]2[C@@H](O)C=C[C@H]3[C@H]1C5` [morphine], the ED50^analgesia (mice [4]; morphine, background section) is listed as 5.6 mg/kg.
In the case of `CC1C2Cc3ccc(O)cc3C1(C)CCN2CCc1ccccc1` (stereo not shown) [phenazocine, 2'-hydroxy-5,9-dimethyl-2-phenethyl-6,7-benzomorphan], the “analgesic activity” value [5] is given as “potent analgesic” and the “morphine-like actions” value [6] is given as “produces the entire range of morphine-like actions, including respiratory depression, constipation, and physical dependence”.
